US11136301B2, “Broad spectrum antiviral compounds and uses thereof” (The Regents Of The University Of California, priority 2015, dated 2021)
Entries after “also recorded” stand apart in the source; their conditions may differ. Like-named read-outs stand apart in the source and are kept apart here.

Columns and labels:
[1] = tested on: HA-tagged A3G and GFP-tagged Vif or ΔVif in 293FT cells; experiment: Immunoblot of A3G and Vif levels in transfected 293FT cells; conditions: 16 h; for upregulation of A3G and downregulation of Vif (immunoblots, FIG. 16): 293FT cells, 50 μM
[2] = tested on: wild-type HIV-1 (HIV-1LAI) in H9 cells (non-permissive); experiment: microbe, parasite or virus in culture; type: cell-based; conditions: for antiviral activity against HIV-1 (in words): HIV-1 replication
[3] = Water solubility of choline salts; type: physicochemical
Zika virus = experiment: Zika viral replication inhibition; type: cell-based; conditions: FIG. 20
Ebola virus = type: cell-based; conditions: FIG. 19
[4] = tested on: wild-type HIV-1 (HIV-1LAI) in MT-4 cells (permissive); experiment: Antiviral activity assay: wild-type HIV-1 in permissive MT4 cells, reverse transcriptase activity in culture supernatants; type: cell-based
[5] = tested on: A3G, Vif, p24, HSP90 in HIV-1LAI-infected H9 and MT4 cells; experiment: Protein analysis (immunoblot) of HIV-1 infected H9 and MT4 cells; type: cell-based
Experimental: Non-permissive (H9) and permissive (MT4) cells were treated with 1% DMSO, IMA82, or 17-DMAG overnight and then infected with HIV-1LAI for 5 h. Cells were washed three times with PBS and cultured in medium for 72 h in the presence of the same concentrations of DMSO, IMA82, or 17-DMAG. Total cell lysates were prepared with M-PER buffer containing 0.5% Triton X-100, 150 mM NaCl, 5 mM EDTA, and protease inhibitor cocktail. Protein concentrations were determined with the DC protein assay kit (Bio-Rad). Immunoblotting was performed as described above.

[6] = tested on: Vif-A3G-HSP90-Cul5-CBF-β E3 ligase complex; experiment: Immunoprecipitation of IMA82-interacting proteins / E3 ligase complex; type: cell-based; conditions: 293FT cells transfected with FLAG-HSP90 and HA-A3G, 16 h
Experimental: Cells were washed twice with PBS and lysed in IP lysis buffer (Thermo) or in a buffer composed of 50 mM Tris-HCl (pH 7.2), 150 mM NaCl, 1% NP-40, 10% glycerol, and protease inhibitor cocktail. Cell lysates ([…]) were incubated with 5 μl of rat anti-HA (Roche), rabbit anti-GFP (Cell Signaling), mouse anti-Hsp90 (Millipore), or rabbit anti-Cul5 (Sigma) plus 30 μl of protein A or G DYNABEADS® (Invitrogen) and rotated at RT for 2 h. The beads were washed three times with PBS containing 0.05% Tween 20. Each lysate was immunoprecipitated in triplicate and the beads were combined. Immune complexes were eluted by boiling in 5×SDS sample buffer. The proteins were separated by SDS-PAGE and analyzed by immunoblotting with antibodies to HA (A3G), GFP (Vif), Hsp90, Cul5, and CBF-β, as described above.

[7] = tested on: polyubiquitination of A3G and Vif; experiment: Ubiquitination assay in 293FT cells; type: cell-based; conditions: 293FT-A3G-ΔVif cells (lacking Vif)
Experimental: Cells were incubated with or without 10 μM of IMA82, IMD55, or IMD64 for 16 h, and then with or without 10 μM of the calpain inhibitor ALLN for 4 h. The cells were washed once with PBS and lysed. Samples of 200 μg protein were immunoprecipitated by the addition of rat anti-HA (Roche) or mouse anti-GFP (Wako) antibodies (7 μg) and 50 μl protein G DYNABEADS® (Invitrogen) and rotated at RT for 2 h. The beads were washed three times with PBS containing 0.05% Tween 20 and boiled in 5×SDS sample buffer. The denatured proteins were resolved and electroblotted onto PVDF membranes. The membranes were probed with rabbit anti-ubiquitin, rabbit anti-HA, or rabbit anti-GFP antibodies, as described above.

[8] = Human immunodeficiency virus 1, H9, read-out: IC50, anti-HIV-1 activity, non-permissive H9 cells
[9] = Human immunodeficiency virus 1, H9, read-out: Antiviral activity (IC50 μM) H9 cells, Table 5, wild-type HIV-1, non-permissive H9 cells
[10] = Human immunodeficiency virus 1, H9, read-out: Antiviral activity (IC50 μM) H9 cells, Table 8, wild-type HIV-1, non-permissive H9 cells
[11] = Human immunodeficiency virus 1, H9, read-out: Antiviral activity (IC50 μM) H9 cells, wild-type HIV-1 (HIV-1LAI), H9 cells (non-permissive), RT activity in culture supernatants, compounds 1 to 50 μM
[12] = Human immunodeficiency virus 1, H9, read-out: Antiviral activity (IC50 μM) H9, Table 2, wild-type HIV-1, non-permissive H9 cells
[13] = Human immunodeficiency virus 1, H9, read-out: Antiviral activity (IC50 μM) H9 Cells, Table 4, wild-type HIV-1, non-permissive H9 cells
[14] = Human immunodeficiency virus 1, H9, read-out: Antiviral activity (IC50 μM) H9 Cells, Table 7, wild-type HIV-1, non-permissive H9 cells
[15] = Human immunodeficiency virus 1, MT4, Table 2, wild-type HIV-1, permissive MT4 cells, read-out: Antiviral activity (IC50 μM) MT4
[16] = Human immunodeficiency virus 1, MT4, wild-type HIV-1 (HIV-1LAI), MT4 cells (permissive), RT activity in culture supernatants, compounds 1 to 50 μM, read-out: Antiviral activity (IC50 μM) MT4 cells

SMILES: COc1ccccc1-n1cc(-c2ccccc2S(=O)(=O)c2ccc(C(=O)O)cc2)nn1 [Compound 2gy, 2-Hydroxy-N,N,N-trimethylethanaminium 4-((2-(1-(2-methoxyphenyl)-1H-1,2,3-triazol-4-yl)phenyl)sulfonyl)benzoate]
- upregulation of A3G and downregulation of Vif (immunoblots, FIG. 16) [1]: same mechanism as of RN-18; also recorded: same mechanism as observed for RN-18 and 1d
- antiviral activity against HIV-1 (in words) [2]: potent activities
- IC50 [2, 8]: 0.2 µM
- water solubility [3]: water-soluble

SMILES: COC(=O)c1ccc(Sc2ccccc2-c2cn(-c3ccc(OC)cc3OC)nn2)cc1 [Compound 4bx, Methyl 4-((2-(1-(2,4-dimethoxyphenyl)-1H-1,2,3-triazol-4-yl)phenyl)thio)benzoate]
- Zika viral replication (Zika virus): Zika viral replication inhibition
- IC50 [2, 9]: 2 µM
- IC50 [2, 10]: 2 µM
- IC50 [2, 11]: 2 µM
- Ebola viral replication (Ebola virus): Ebola viral replication inhibition

SMILES: COc1ccc(-n2cc(-c3ccccc3S(=O)(=O)c3ccc(C(=O)O)cc3)nn2)c(OC)c1 [Compound 4gy, 2-Hydroxy-N,N,N-trimethylethanaminium 4-((2-(1-(2,4-dimethoxyphenyl)-1H-1,2,3-triazol-4-yl)phenyl)sulfonyl)benzoate]
- antiviral activity against HIV-1 (in words) [2]: potent activities
- IC50 [2, 12]: 0.7 µM
- IC50 [2, 13]: 0.7 µM
- IC50 [2, 14]: 0.7 µM
- IC50 [2, 8]: 0.7 µM
- IC50 [4, 15]: > 50 µM
- IC50 [4, 16]: > 50 µM
- water solubility [3]: water-soluble

SMILES: COc1ccc(OC)c(-n2cc(-c3ccccc3S(=O)(=O)c3ccc([N+](=O)[O-])cc3)nn2)c1 [Compound 5ay, 1-(2,5-Dimethoxyphenyl)-4-(2-((4-nitrophenyl)sulfonyl)phenyl)-1H-1,2,3-triazole]
- IC50 [2, 12]: 1 µM
- IC50 [2, 13]: 1 µM
- IC50 [2, 14]: 1 µM
- IC50 [2, 9]: 1 µM
- IC50 [2, 10]: 1 µM
- IC50 [2, 11]: 1 µM
- IC50 [2, 8]: 1 to 3 µM
- IC50 [4, 15]: > 50 µM
- IC50 [4, 16]: > 50 µM
- Ebola viral replication (Ebola virus): Ebola viral replication inhibition

SMILES: COC(=O)c1ccc(Sc2ccccc2-c2cn(-c3cc(OC)ccc3OC)nn2)cc1 [Compound 5bx, Methyl 4-((2-(1-(2,5-dimethoxyphenyl)-1H-1,2,3-triazol-4-yl)phenyl)thio)benzoate]
- Zika viral replication (Zika virus): Zika viral replication inhibition
- upregulation of A3G and downregulation of Vif (immunoblots, FIG. 16) [1]: same mechanism as of RN-18; also recorded: same mechanism as observed for RN-18 and 1d
- IC50 [2, 12]: 0.2 µM
- IC50 [2, 13]: 0.2 µM
- IC50 [2, 14]: 0.2 µM
- IC50 [2, 9]: 0.2 µM
- IC50 [2, 10]: 0.2 µM
- IC50 [2, 11]: 0.2 µM
- IC50 [2, 8]: 0.2 µM
- IC50 [4, 15]: > 50 µM
- IC50 [4, 16]: > 50 µM

SMILES: COc1ccc(OC)c(-n2cc(-c3ccccc3S(=O)(=O)c3ccc(C(=O)O)cc3)nn2)c1 [Compound 5gy, 2-Hydroxy-N,N,N-trimethylethanaminium 4-((2-(1-(2,5-dimethoxyphenyl)-1H-1,2,3-triazol-4-yl)phenyl)sulfonyl)benzoate]
- upregulation of A3G and downregulation of Vif (immunoblots, FIG. 16) [1]: same mechanism as of RN-18; also recorded: same mechanism as observed for RN-18 and 1d
- antiviral activity against HIV-1 (in words) [2]: potent activities
- IC50 [2, 13]: 0.5 µM
- IC50 [2, 14]: 0.5 µM
- IC50 [2, 8]: 0.5 µM
- water solubility [3]: water-soluble

SMILES: COC(=O)c1ccc(Sc2ccccc2-c2cn(-c3c(OC)cccc3OC)nn2)cc1 [Compound 6bx, Methyl 4-((2-(1-(2,6-dimethoxyphenyl)-1H-1,2,3-triazol-4-yl)phenyl)thio)benzoate]
- Zika viral replication (Zika virus): Zika viral replication inhibition
- IC50 [2, 13]: 0.2 µM
- IC50 [2, 14]: 0.2 µM
- IC50 [2, 9]: 0.2 µM
- IC50 [2, 10]: 0.2 µM
- IC50 [2, 11]: 0.2 µM
- IC50 [2, 8]: 0.2 µM

SMILES: C=CCNC1=C2C[C@@H](C)C[C@H](OC)[C@H](O)[C@@H](C)/C=C(\C)[C@H](OC(N)=O)[C@@H](OC)/C=C\C=C(/C)C(=O)NC(=CC1=O)C2=O [Compound 17-AAG, 17-N-Allylamino-17-demethoxygeldanamycin, reference compound]
- A3G expression ([1]; 293FT cells co-expressing HA-A3G and Vif or ΔVif): dose-dependently decreased A3G expression
- Vif expression / degradation ([1]; 293FT cells co-expressing HA-A3G and Vif): unaffected
- HSP90 expression ([1]; transfected 293FT cells): no effect on HSP90 levels
- A3G levels ([5]; HIV-1-infected H9 cells): dose-dependently decreased the expression of A3G
- Vif levels ([5]; HIV-1-infected H9 cells): without affecting Vif expression
- A3G expression ([5]; uninfected H9 cells, 16 h): decreased
- HSP90-A3G interaction, FLAG-HSP90 affinity purification [6]: remained in complexes with A3G
- A3G ubiquitination [7]: ubiquitinated
